The numbers were not newly measured in patent US11608532B2, “Precision medicine for treating and preventing suicidality” (Indiana University Research and Technology Corporation, priority 2017, dated 2023), which cites them from elsewhere.

Read-outs that look alike come from different tables or passages of the source.

Data set [1] concerns top male bipolar biomarkers for suicidality.
In data set [2] the test system is individual top biomarkers for suicidality. The note with it: for IFNG modulated by drug in opposite direction to suicide: AP/1; for TNF modulated by drug in opposite direction to suicide: direction of change in suicidality (I) DE/1, (I) AP/1.
[3] abbreviates: HTR2A, 244130_at, (I) in suicidality, male bipolars.
Setting [4] is: A. Top Universal Biomarkers, direction of change in suicidality (I), DE/2.
Where [5] appears, read: C. Top Biomarkers in Females, direction of change in suicidality I, DE/2.
The mark [6] stands for this setting: D. Top Biomarkers in Bipolar Disorder, direction of change in suicidality (I), DE/2.
Where [7] appears, read: F. Top Biomarkers in Males with Bipolar Disorder, direction of change in suicidality (I), DE/2.
Setting [8] is: biomarker HTR2A (5-hydroxytryptamine (serotonin) receptor 2A, G protein-coupled).
The mark [9] stands for this setting: A. Top Universal Biomarkers, direction of change in suicidality (D).
[10] abbreviates: D. Top Biomarkers in Bipolar Disorder.

Turning to `CNCCCN1c2ccccc2CCc2ccccc21` [desipramine], in data set [1] (setting [3]), the “Drugs that Modulate the Biomarker in Opposite Direction to Suicide” value is “desipramine”.

On to `CC[C@@H](CO)NC(=O)[C@@H]1C=C2c3cccc4c3c(cn4C)C[C@H]2N(C)C1` [methysergide], for which the “Drugs that Modulate the Biomarker in Opposite Direction to Suicide” value in data set [1] (setting [3]) is listed as “methysergide”.

For the compound `CN1CCc2cccc3c2[C@H]1Cc1ccc(O)c(O)c1-3` [apomorphine], the “Drugs that Modulate the Biomarker in Opposite Direction to Suicide” value in data set [1] (setting [3]) is listed as “apomorphine”.

Consider `CN(C)CCC=C1c2ccccc2COc2ccccc21` [doxepin], for which the “Drugs that Modulate the Biomarker in Opposite Direction to Suicide” value in data set [1] (setting [3]) is on record as “doxepin”.

Regarding `CN(C)CCC=C1c2ccccc2CCc2ccccc21` [amitriptyline], the “Drugs that Modulate the Biomarker in Opposite Direction to Suicide” value in data set [1] (setting [3]) is recorded as “amitriptyline”.

Take `CN1C[C@H](C(=O)N[C@]2(C)O[C@@]3(O)[C@@H]4CCCN4C(=O)[C@H](Cc4ccccc4)N3C2=O)C=C2c3cccc4[nH]cc(c34)C[C@H]21` [ergotamine]: the “Drugs that Modulate the Biomarker in Opposite Direction to Suicide” value in data set [1] (setting [3]) is “ergotamine”.

Take `O=C1CCc2ccc(OCCCCN3CCN(c4cccc(Cl)c4Cl)CC3)cc2N1` [aripiprazole]: the “Drugs that Modulate the Biomarker in Opposite Direction to Suicide” value in data set [1] (setting [3]) is recorded as “aripiprazole”.

Consider `CN1CCCCC1CCN1c2ccccc2Sc2ccc([S+](C)[O-])cc21` (stereo not shown) [mesoridazine], for which the “Drugs that Modulate the Biomarker in Opposite Direction to Suicide” value in data set [1] (setting [3]) is recorded as “mesoridazine”.

As for `CCO` [Alcohol], the “Drugs that Modulate the Biomarker in Opposite Direction to Suicide (direction of change by drug)” value in data set [1] is “(D) and (I)”.

In the case of `Cc1nc2n(c(=O)c1CCN1CCC(c3noc4cc(F)ccc34)CC1)CCCC2O` (stereo not shown) [Paliperidone], the “Drugs that Modulate the Biomarker in Opposite Direction to Suicide” value in data set [1] (setting [3]) was “Paliperidone”. Also, the “HTR2A modulated by drug in opposite direction to suicide” value (“HTR2A modulated by drug” below) in data set [2] (setting [4]), in data set [2] (setting [5]), in data set [2] (setting [6]) and in data set [2] (setting [7]) was “Paliperidone,” in each case. Besides, the “Step 6 Drugs that Modulate the Biomarker in Opposite Direction to Suicide” value (“Step 6 Drugs that Modulate the Biomarker” for short) in data set [2] (setting [8]) was “Paliperidone,”.

With `OCCOCCN1CCN(C2=Nc3ccccc3Sc3ccccc32)CC1` [quetiapine], the “Drugs that Modulate the Biomarker in Opposite Direction to Suicide” value in data set [1] (setting [3]) is “quetiapine”.

With `CSc1ccc2c(c1)N(CCC1CCCCN1C)c1ccccc1S2` (stereo not shown) [thioridazine], in data set [1] (setting [3]), the “Drugs that Modulate the Biomarker in Opposite Direction to Suicide” value is reported as “thioridazine”.

Regarding `Cc1nc2n(c(=O)c1CCN1CCC(c3noc4cc(F)ccc34)CC1)CCCC2` [Risperidone], the “Drugs that Modulate the Biomarker in Opposite Direction to Suicide” value in data set [1] (setting [3]) was “Risperidone”. Further, the “IFNG modulated by drug in opposite direction to suicide” value in data set [2] (setting [9]) is given as “Risperidone,”. Besides, the “Step 6 Drugs that Modulate the Biomarker” value in data set [2] (setting [8]) is on record as “Risperidone”.

Regarding `CN[C@@H](C)Cc1ccccc1` [Methamphetamine], in data set [1] (CRYAB, 209283_at, (I) in suicidality, male bipolars), the “Drugs that Modulate the Biomarker in Opposite Direction to Suicide” value was “Methamphetamine”.

On to `O=C1Cc2cc(CCN3CCN(c4nsc5ccccc45)CC3)c(Cl)cc2N1` [ziprasidone], for which the “Drugs that Modulate the Biomarker in Opposite Direction to Suicide” value in data set [1] (setting [3]) is given as “ziprasidone”.

Take `O=C1NCCN1CCN1CCC(c2cn(-c3ccc(F)cc3)c3ccc(Cl)cc23)CC1` [sertindole]: in data set [1] (setting [3]), the “Drugs that Modulate the Biomarker in Opposite Direction to Suicide” value is reported as “sertindole”.

In the case of `CCc1nn(CCCN2CCN(c3cccc(Cl)c3)CC2)c(=O)n1CCOc1ccccc1` [nefazodone], the “Drugs that Modulate the Biomarker in Opposite Direction to Suicide” value in data set [1] (setting [3]) is given as “nefazodone”.

With `CN1C(=O)CN=C(c2ccccc2)c2cc(Cl)ccc21` [Diazepam], the “Drugs that Modulate the Biomarker in Opposite Direction to Suicide” value in data set [1] (SPTBN1, 215918_s_at, (I) in suicidality, male bipolars) was “Diazepam”. Also, the “Step 6 Drugs that Modulate the Biomarker” value in data set [2] (biomarker AKAP13 (A kinase (PRKA) anchor protein 13)), in data set [2] (biomarker PGK1 (phosphoglycerate kinase 1)) and in data set [2] (biomarker PSMB4) was “Diazepam” throughout. Further, the “Drugs that modulate the biomarker SPTBN1” value in data set [2] (biomarker SPTBN1 (spectrin, beta, non-erythrocytic 1), Table 20 CFE drug-evidence) is on record as “Diazepam”.

In the case of `CN(C)CCCN1c2ccccc2CCc2ccc(Cl)cc21` [clomipramine], the “Drugs that Modulate the Biomarker in Opposite Direction to Suicide” value in data set [1] (setting [3]) is given as “clomipramine”.

Turning to `CN1CCC(=C2c3ccccc3CCc3cccnc32)CC1` [azatadine], the “Drugs that Modulate the Biomarker in Opposite Direction to Suicide” value in data set [1] (setting [3]) was “azatadine”.

For `CN1CCN2c3ncccc3Cc3ccccc3C2C1` (stereo not shown) [mirtazapine], the “Drugs that Modulate the Biomarker in Opposite Direction to Suicide” value in data set [1] (setting [3]) is reported as “mirtazapine”. For the same compound, the “HTR2A modulated by drug” value in data set [2] (setting [4]), in data set [2] (setting [5]), in data set [2] (setting [6]) and in data set [2] (setting [7]) was “mirtazapine,” throughout.

As to `CN1C[C@H](C(=O)N[C@]2(C)O[C@@]3(O)[C@@H]4CCCN4C(=O)[C@H](Cc4ccccc4)N3C2=O)C[C@@H]2c3cccc4[nH]cc(c34)C[C@H]21` [dihydroergotamine], the “Drugs that Modulate the Biomarker in Opposite Direction to Suicide” value in data set [1] (setting [3]) is listed as “dihydroergotamine”.

With `OCCN1CCN(CCCN2c3ccccc3C=Cc3ccccc32)CC1` [opipramol], the “HTR2A modulated by drug” value in data set [2] (setting [4]), in data set [2] (setting [5]), in data set [2] (setting [6]) and in data set [2] (setting [7]) was “opipramol,” throughout.

Take `COc1cc(C(C)=O)ccc1OCCCN1CCC(c2noc3cc(F)ccc23)CC1` [Iloperidone]: the “HTR2A modulated by drug” value in data set [2] (setting [4]), in data set [2] (setting [5]), in data set [2] (setting [6]) and in data set [2] (setting [7]) was “Iloperidone,” in each case.

For the compound `CCN(CC)C(=O)N[C@H]1C=C2c3cccc4[nH]cc(c34)C[C@H]2N(C)C1` [lisuride], in data set [1] (setting [3]), the “Drugs that Modulate the Biomarker in Opposite Direction to Suicide” value is on record as “lisuride”.

As for `Cc1ccc(C23CNCC2C3)cc1` (stereo not shown) [bicifadine], the “SLC6A4 modulated by drug in opposite direction to suicide” value in data set [2] (B. Top Biomarkers in Males, direction of change in suicidality I, DE/2) is “bicifadine,”; in data set [2] (D. Top Biomarkers in Bipolar Disorder, direction of change in suicidality (D), DE/1), “bicifadine,”.

With infliximab, the “TNF modulated by drug in opposite direction to suicide” value (shortened to “TNF modulated by drug”) in data set [2] (setting [10]) is “infliximab,”.

As for `O=C1Cc2cc(CCN3CCN(c4nsc5ccccc45)CC3)c(Cl)cc2N1` [Ziprasidone], the “Step 6 Drugs that Modulate the Biomarker” value in data set [2] (setting [8]) is “Ziprasidone”.

golimumab: the “TNF modulated by drug” value in data set [2] (setting [10]) was “golimumab,”.

`C/C=C(/C)C(=O)O[C@H]1C(C)=C[C@]23C(=O)[C@@H](C=C(CO)[C@@H](O)[C@]12O)[C@H]1[C@@H](C[C@H]3C)C1(C)C` [Ingenol mebutate]: the “Drugs that modulate the biomarker PRKCB” value in data set [2] (biomarker PRKCB (protein kinase C, beta), Table 20 CFE drug-evidence) was “Ingenol mebutate”. For the same compound, the “Step 6 Drugs that Modulate the Biomarker” value in data set [2] (biomarker PRKCI (protein kinase C, iota)) was “Ingenol”.

Consider `O=C1CCc2ccc(OCCCCN3CCN(c4cccc(Cl)c4Cl)CC3)cc2N1` [Aripiprazole], for which the “IFNG modulated by drug in opposite direction to suicide” value in data set [2] (setting [9]) is “Aripiprazole”. For the same compound, the “Step 6 Drugs that Modulate the Biomarker” value in data set [2] (setting [8]) was “Aripiprazole”.

Turning to `CN1CC2c3ccccc3Oc3ccc(Cl)cc3C2C1` (stereo not shown) [asenapine], the “HTR2A modulated by drug” value in data set [2] (setting [4]), in data set [2] (setting [5]), in data set [2] (setting [6]) and in data set [2] (setting [7]) was “asenapine,” throughout.

For the compound `CN1CCN(c2ccc(C(=O)Nc3n[nH]c4ccc(Cc5cc(F)cc(F)c5)cc34)c(NC3CCOCC3)c2)CC1` [entrectinib], the “NTRK3 modulated by drug in opposite direction to suicide” value in data set [2] (setting [5]) was “entrectinib,”; in data set [2] (E. Top Biomarkers in Depression, direction of change in suicidality (I) AP/2, (I) DE/1), “entrectinib,”; in data set [2] (G. Top Biomarkers in Males with Depression, direction of change in suicidality (D), AP/2), “entrectinib,”.

As to “omega-3 fatty acids [reference compound]”, the “Matching to Treatments (Pharmacogenomics) Drugs that Modulate the Biomarker in opposite Direction to Suicide” value in the data set with BioM50 panel biomarkers was “Omega-3”. In addition, in data set [1], the “Drugs that Modulate the Biomarker in Opposite Direction to Suicide” value is on record as “Omega-3” and the “Drugs that Modulate the Biomarker in Opposite Direction to Suicide (direction of change by drug)” value is “(I)”.

As to `COc1ccc(C(CN(C)C)C2(O)CCCCC2)cc1` (stereo not shown) [Venlafaxine], the “TNF modulated by drug” value in data set [2] (setting [10]) was “Venlafaxine”.

With Tocilizumab, the “Step 6 Drugs that Modulate the Biomarker” value in data set [2] (biomarker IL6 (interleukin 6)) is “Tocilizumab”.
